Measured values reported in patent US12290521B2, “Methods and materials for identifying and treating BET inhibitor-resistant cancers” (Mayo Foundation for Medical Education and Research, priority 2018, dated 2025).
Residues, ends and D or L forms follow the SMILES beside them. *: point of attachment. Cbz = O=C(OCc1ccccc1)*

What was measured:
C4-2 cells [1] = test: Cell proliferation assay (MTS) and trypan blue assay; assay type: cell-based, human; conditions: SPOP-F133V C4-2 cells; GDC-0068 0.2 μM with JQ1 0.25 μM, 5 days
Procedure: CellTiter 96® AQueous One Solution Cell Proliferation Assay (MTS) (Promega) was used to measure cell growth according to the manufacturer's instructions. Briefly, cells were plated in 96-well plates at a density of 2,000 cells per well. At the indicated times, 20 μL of Cell Titer 96R Aqueous One Solution Reagent was added to medium. After incubating for 1 hour at 37° C. in the cell incubator, cell growth was measured in a microplate reader at 490 nm.
Trypan blue assay was performed to measure cell growth according to the manufacturer's instructions. Briefly, cells were plated in 6-well plates at a density of about 5×10^4 to about 1×10^5 cells per well. At the indicated time points, cells were trypsinized and suspended in 1 mL 1×PBS. 100 μL cells and 100 μL trypan blue solution (Sigma-Aldrich) were mixed, and the number of viable cells was measured using the Bio-Rad automated cell counter.
Cell proliferation was measured by using the MTS assay (Promega). Prostate cancer cells (2,000 per well) were seeded in 96-well plates with 100 μL of culture medium. Each well was added with 20 μL of CellTiter 96R AQueous One Solution Reagent (Promega) and absorbance was measured in a microplate reader at 490 nm.

C4-2 xenograft tumors = test: Prostate cancer xenografts in NSG mice; assay type: in vivo; conditions: SPOP-F133V C4-2 xenografts; GDC-0068 100 mg/kg with JQ1 50 mg/kg, 5 days a week, day 21
Procedure: 6-week-old NOD-SCID IL-2-receptor gamma null (NSG) mice were generated and randomly divided into different experimental groups as indicated. All mice were housed in standard conditions with a 12-hour light/dark cycle and access to food and water ad libitum. For BRD2/3/4 knockdown studies, C4-2 cells (5×10^6), infected with lentivirus expressing empty vector (EV) or HA-SPOP-F133V mutant in combination with control shRNA or BRD2/3/4-specific shRNA, were mixed with Matrigel (in 100 μL 1×PBS plus 100 μL Matrigel (BD Biosciences)) and injected s.c. into the right flank of mice. After xenografts reached the size of about 100 mm^3, vehicle (10% beta cyclodextrin) or JQ1 (Sigma-Aldrich) at 50 mg/kg body weight was administered by i.p. injection 5 days a week. For studies with tumors treated with JQ1 and AKT inhibitor GDC-0068, C4-2 cells (5×10^6) infected with lentivirus expressing empty vector (EV) or HA-SPOP-F133V mutant were mixed with Matrigel (in 100 μL 1×PBS plus 100 μL Matrigel (BD Biosciences)) and injected s.c. into the right flank of mice. […] Growth in tumor volume was measured in a blinded fashion using digital caliper, and tumor volumes were estimated using the formula (L×W2)/2, where L is length of tumor and W is width. The volumes of tumors were compared, and P values were determined by a two-tailed Student's t test. […]

C4-2 cells [2] = test: Western blot and RT-qPCR of protein and mRNA expression in C4-2 cells; assay type: cell-based, human; conditions: 24 hours
Procedure: (§1) Cell lysates or immunoprecipitates were subjected to SDS-PAGE, and proteins were transferred to nitrocellulose membranes (GE Healthcare Sciences). The membranes were blocked in Tris-buffered saline (TBS, pH 7.4) containing 5% non-fat milk and 0.1% Tween-20, washed twice in TBS containing 0.1% Tween-20, and incubated with primary antibody overnight at 4° C., followed by secondary antibody for 1 hour at room temperature. The proteins of interest were visualized using ECL chemiluminescence system (Santa Cruz Biotechnology). Densitometry analysis of protein bands was analyzed on the Gel-Pro Analyzer software.
(§2) Total RNA was isolated from transiently transfected cells using the Trizol reagent (Thermo Fisher Scientific), and cDNA was reverse-transcribed using the Superscript RT kit (TOYOBO, Japan) according to the manufacturer's instructions. PCR amplification was performed using the SYBR Green PCR master mix Kit (TOYOBO, Japan). All quantization was normalized to the level of endogenous control GAPDH. The primer sequences for the SYBR green qPCR used were as follows: BRD2-F: 5′-[…]-3′ (SEQ ID NO:10); BRD2-R: 5′-[…]-3′ (SEQ ID NO:11); BRD3-F: 5′-[…]-3′ (SEQ ID NO:12); BRD3-R: 5′-[…]-[…]-3′ (SEQ ID NO:13); BRD4-F: 5′-[…]-GAG-3′ (SEQ ID NO:14); BRD4-F: 5′-[…]-3′ (SEQ ID NO: 15); RAC1-F: 5′-[…]-3′ (SEQ ID NO:16); RAC1-R: 5′-[…]-3′ (SEQ ID NO:17); FDFT1-F: 5′-ACTAT-[…]-3′ (SEQ ID NO:18); FDFT1-R: 5′-[…]-[…]-3′ (SEQ ID NO:19); DHCR24-F: 5′-[…]-GAGC-3′ (SEQ ID NO:20); DHCR24-R: 5′-[…]-3′(SEQ ID NO:21); DHCR7-F: 5′-[…]-3′ (SEQ ID NO: 22); DHCR7-R: 5′-[…]-3′ (SEQ ID NO:23); MVD-F: 5′-[…]-3′ (SEQ ID NO:24); MVD-R: 5′-CACAC-[…]-3′ (SEQ ID NO:25); PSA-F: 5′-[…]-[…]-3′ (SEQ ID NO:26); PSA-R: 5′-[…]-3′ (SEQ ID NO:27); TMPRSS2-F: 5′-[…]-3′ (SEQ ID NO: 28); TMPRSS2-R: 5′-[…]-3′ (SEQ ID NO:29); MYC-F: 5′-[…]-3′ (SEQ ID NO:30); MYC-R: 5′-CTTGT-[…]-3′ (SEQ ID NO:31); AR-F: 5′-[…]-TCACC-3′ (SEQ ID NO:32); AR-R: 5′-[…]-3′ (SEQ ID NO: 33); GAPDH-F: 5′-[…]-3′ (SEQ ID NO:34); and GAPDH-R: 5′-[…]-3′ (SEQ ID NO:35).
(§3) Cells were harvested and lysed by IP buffer (50 mM Tris-HCl, pH 7.4, 150 mM NaCl, 1% Triton X-100, 1% sodium deoxycholate and 1% protease inhibitor cocktails) on ice for more than 15 minutes. Cell lysate was centrifuged for 15 minutes at 13,000 rpm at 4° C., and the supernatant was quantified by BCA protein quantification assay. Equal amounts of protein sample were added into 4× sample buffer and boiled for 5 minutes. The sample was subjected to SDS-PAGE analysis and transferred to nitrocellulose membrane. The membrane was blocked by 5% milk for 1 hour at room temperature and incubated with primary antibody at 4° C. overnight. The next day, the membrane was washed three times with 1×TBST and incubated with horseradish peroxidase-conjugated secondary antibodies for 1 hour at room temperature. The protein bands were visualized by SuperSignal West Pico Stable Peroxide Solution (Thermo Fisher Scientific).
Total RNA was isolated using TRIzol reagent (Thermo Fisher Scientific). The NanoDrop 2000 spectrophotometer (Thermo Fisher Scientific) was used to assess RNA yield and quality. RNA was reversely transcribed using Superscript II reverse transcriptase (Thermo Fisher Scientific) following manufacturer's instructions. Quantitative real-time PCR was performed by mixing cDNA, gene-specific primers and IQ SYRB Green Supermix and detected by iCycler QTX detection system (Bio-Rad). The 2-ΔCt method was used to quantitate fold changes by normalizing to GAPDH.

solid tumors = conditions: patients with solid tumors; cited from earlier work
BRD2/3/4 = test: Western blot and RT-qPCR of BRD2/3/4 in LNCaP cells; assay type: cell-based; conditions: 8 hours, MLN4924 200 nM, Bortezomib 200 nM, MG132 20 μM
Procedure: as §1, §2

SPOP and BRD2/3/4 = test: Western blot, co-IP and in vivo ubiquitination assay in 293T cells; assay type: cell-based, human; conditions: MG132 20 μM, 8 hours
Procedure: To immunoprecipitate the ectopically expressed FLAG-tagged proteins, transfected cells were lysed 24 hours post-transfection in BC100 buffer. The whole-cell lysates were immunoprecipitated with the monoclonal anti-FLAG antibody-conjugated M2 agarose beads (Sigma-Aldrich) at 4° C. overnight. After three washes with lysis buffer, followed by two washes with BC100 buffer, the bound proteins were eluted using FLAG-Peptide (Sigma-Aldrich) prepared in BC100 for 3 hours at 4° C. The eluted protein sample was resolved by SDS-PAGE. To immunoprecipitate the endogenous proteins, cells were lysed with 1× cell lysis buffer (Cell Signaling Technology), and the lysate was centrifuged. The supernatant was precleared with protein A/G beads (Sigma-Aldrich) and incubated with the indicated antibody and protein A/G beads at 4° C. overnight. Beads were washed five times with lysis buffer and resuspended in sample buffer and analyzed by SDS-PAGE.
as §1
For the in vivo ubiquitination assay, C4-2 cells were transfected with plasmids for HA-Ub, FLAG-BRD4, and other indicated proteins. C ells were treated with 20 μM MG132 for 8 hours before being harvested and lysed with lysis buffer (50 mM Tris-HCl, pH 7.5, 150 mM NaCl, 1% NP40, 0.5% sodium deoxycholate, 1× protease inhibitor cocktail (PIC)). The lysate was subjected to co-immunoprecipitation using anti-FLAG-conjugated agarose beads as described in the Co-IP assay.

BRD4 [3] = test: Western blot of BRD4 protein, ubiquitination and half-life in DU145 cells; assay type: cell-based, human
Procedure: Co-Immunoprecipitation (Co-IP) Cells were harvested and lysed by IP buffer (50 mM Tris-HCl, pH 7.4, 150 mM NaCl, 1% Triton X-100, 1% sodium deoxycholate and 1% protease inhibitor cocktails) on ice for more than 15 minutes. Cell lysate was centrifuged for 15 minutes at 13,000 rpm at 4° C., and the supernatant was incubated with primary antibodies and protein A/G agarose beads (Thermo Fisher Scientific) with rotating at 4° C. overnight. The next day, the pellet was washed at least six times with 1×IP buffer on ice, and then subjected to western blotting analysis. Western Blotting
as §3

BRD4 [4] = test: Western blot of BRD4 protein in PC-3 cells; assay type: cell-based, human; conditions: MG132, 8 h
Procedure: as §3

[5] = DU145 cells, PD0332991 2 μM, 24 hours
[6] = DU145 cells, PD0332991 with JQ1, 24 hours

Question: Which “SPOP mutation-conferred resistance to BET inhibitor, cells in culture” value (C4-2 cells [1]) does the source give for `CC(C)NC[C@@H](C(=O)N1CCN(c2ncnc3c2[C@H](C)C[C@H]3O)CC1)c1ccc(Cl)cc1` [GDC-0068] here?
Answer: Its value is “completely overcame”.

Question: What about the “SPOP mutation-conferred resistance to BET inhibitor, tumors in mice” value (C4-2 xenograft tumors) of the same compound?
Answer: The value was “completely overcame”.

Question: And the “SPOP mutation-induced activation of AKT downstream pathways” value (C4-2 cells [2]; SPOP-F133V C4-2 cells, GDC-0068 1 μM, Western blot)?
Answer: The value was “abolished”.

Question: What about the antitumor efficacy (solid tumors) of the same compound?
Answer: The antitumor efficacy was “effective antitumor efficacy”.

Question: Which BRD2/3/4 protein level (BRD2/3/4) does the source give for `CC(C)C[C@@H](C=O)NC(=O)[C@H](CC(C)C)NC(=O)[C@H](CC(C)C)NC(=O)OCc1ccccc1` [MG132] (Cbz-Leu-Leu-Leu-aldehyde) here?
Answer: Its BRD2/3/4 protein level is “increased”.

Question: What about the “decrease of BRD2/3/4 proteins by wild-type SPOP expression” value (SPOP and BRD2/3/4) of the same compound?
Answer: Its value is “completely reversed”.

Question: What about the “PD0332991-induced decrease of BRD4 protein” value (BRD4 [3]; DU145 cells, 24 hours, co-treatment with MG132) of the same compound?
Answer: The value was “completely impeded”.

Question: What about the “decrease of BRD4 protein levels by DUB3 knockdown” value (BRD4 [3]; SPOP F133V-expressing DU145 cells, MG132, 8 hours) of the same compound?
Answer: Its value is “blocked”.

Question: And the “downregulation of BRD4 proteins caused by DUB3 knockdown” value (BRD4 [4])?
Answer: Its value is “reversed”.

Question: Which BRD2/3/4 protein level (BRD2/3/4) does the source give for `NS(=O)(=O)OC[C@@H]1C[C@@H](n2ccc3c(N[C@H]4CCc5ccccc54)ncnc32)C[C@@H]1O` [MLN4924] here?
Answer: The BRD2/3/4 protein level was “accumulation”.

Question: With `CC(C)C[C@H](NC(=O)[C@H](Cc1ccccc1)NC(=O)c1cnccn1)B(O)O` [Bortezomib] as the compound, how does the BRD2/3/4 protein level (BRD2/3/4) read?
Answer: Its BRD2/3/4 protein level is “increased”.

Question: For `CC(=O)c1c(C)c2cnc(Nc3ccc(N4CCNCC4)cn3)nc2n(C2CCCC2)c1=O` [PD0332991, 6-acetyl-8-cyclopentyl-5-methyl-2-[(5-piperazin-1-ylpyridin-2-yl)amino]pyrido[2,3-d]pyrimidin-7-one], which “BRD4 protein expression in DUB3 knockdown cells” value (BRD4 [3]; DU145 cells, DUB3 shRNA, PD0332991 2 μM, 24 hours) is on record?
Answer: The value was “little or no further reduction”.

Question: What about the BRD4 polyubiquitination (BRD4 [3]; [5]) of the same compound?
Answer: The BRD4 polyubiquitination was “increased”.

Question: And the “DUB3-induced upregulation of BRD4 protein” value (BRD4 [3]; [5])?
Answer: Its value is “completely blocked”.

Question: What about the “DUB3-mediated deubiquitination of BRD4” value (BRD4 [3]; [5]) of the same compound?
Answer: The value was “reversed”.

Question: And the BRD4 protein (BRD4 [3]; DU145 cells, PD0332991 2 μM, time-dependent)?
Answer: The BRD4 protein was “decreased”.

Question: And the “JQ1-induced inhibition of BRD4 polyubiquitination” value (BRD4 [3]; [6])?
Answer: Its value is “almost completely reversed”.

Question: And the “JQ1-induced upregulation of BRD4 protein” value (BRD4 [3]; [6])?
Answer: The value was “almost completely abolished”.

Question: Which “DUB3 protein and mRNA expression” value (C4-2 cells [2]; C4-2 cells, TSA 1 μM) does the source give for `CC(/C=C/C(=O)NO)=C\[C@@H](C)C(=O)c1ccc(N(C)C)cc1` [trichostatin A] here?
Answer: The value was “increased”.
